“Also recorded” adds a separate entry of the source.
Key:
ZIKV = experiment: Dexamethasone-immunosuppressed mouse model of disseminated ZIKV infection; assay type: in vivo, BALB/c mice
Method: Approval was obtained from the Committee on the Use of Live Animals in Teaching and Research of The University of Hong Kong. […] Phosphate-buffered saline (PBS) was used to dilute the virus stocks to the desired concentration, and inocula were back-titrated to verify the dose given. On the day of virus inoculation, a dose of the virus equivalent to 6×10^6 TCID50 (3.24×10^6 plaque forming units) in […] of PBS was inoculated via the intraperitoneal route into mice under ketamine (100 mg/kg) and xylazine (10 mg/kg) anesthesia. Mice in the negative-control groups were injected with the same volume of PBS. Mice were monitored three times each day for clinical signs of disease and a numerical score was assigned at each observation as previously described (Chan et al., 2016c). Three mice per group were sacrificed at 5 dpi for virological, histological, and immunohistochemistry analyses. The remaining mice were sacrificed at 14 dpi or euthanized when there was ≥20% weight loss or ≥10% weight loss with ≥1 clinical sign. Samples of major organs were collected at necropsy for virological, histological, and immunohistochemical analyzes as we previously described (Chan et al., 2016c. Chan et al., 2017b). Blood samples were also collected for RNA extraction and qRT-PCR analysis.

[1] = system: ZIKV (Puerto Rico strain PRVABC59) in Vero cells; experiment: Viral load reduction assay, Vero cells; assay type: cell-based, Zika virus; settings: culture supernatants
Method: A clinical isolate of ZIKV (Puerto Rico strain PRVABC59) obtained from a patient in the recent South American epidemic was kindly provided by Brandy Russell and Barbara Johnson, Centers for Disease Control and Prevention, USA. The virus was cultured and titrated as we previously described with slight modifications (Chan et al., 2016b; Zhou et al., 2014). The virus was amplified by three additional passages in Vero cells (ATCC) in minimum essential medium (MEM) supplemented with 1% fetal bovine serum (FBS, Gibco™, Life Technologies Corporation, Massachusetts, USA) and 100 units/ml penicillin plus 100 μg/ml streptomycin to make working stocks of the virus (4×10^6 50% tissue culture infectious dose (TCID50)/ml). For virus titration, aliquots of ZIKV were applied on confluent Vero cells in 96-well plates for the TCID50 assay as was previously described with slight modifications (Chan et al., 2016b; Zhou et al., 2014). Briefly, serial 10-fold dilutions of ZIKV were inoculated in a Vero cell monolayer in quadruplicate and cultured in penicillin/streptomycin-supplemented MEM and 1% FBS. […] Viral titer was calculated using the Reed and Munch endpoint method. One TCID50 was interpreted as the amount of virus that causes cytopathic effect in 50% of inoculated wells.

[2] = system: ZIKV (Puerto Rico strain PRVABC59) in BALB/c mice; experiment: In vivo treatment of dexamethasone-immunosuppressed mice with disseminated ZIKV infection; set-up: species or system mouse (BALB/c); Zika virus; settings: 100 mg/kg q12 h sc
Method: Phosphate-buffered saline (PBS) was used to dilute the virus stocks to the desired concentration, and inocula were back-titrated to verify the dose given. On the day of virus inoculation, a dose of the virus equivalent to 6×10^6 TCID50 (3.24×10^6 plaque forming units) in 2000 of PBS was inoculated via the intraperitoneal route into mice under ketamine (100 mg/kg) and xylazine (10 mg/kg) anesthesia. Mice in the negative-control groups were injected with the same volume of PBS. Mice were monitored three times each day for clinical signs of disease and a numerical score was assigned at each observation as previously described (Chan et al., 2016c). Three mice per group were sacrificed at 5 dpi for virological, histological, and immunohistochemistry analyses. The remaining mice were sacrificed at 14 dpi or euthanized when there was ≥20% weight loss or ≥10% weight loss with ≥1 clinical sign. Samples of major organs were collected at necropsy for virological, histological, and immunohistochemical analyzes as we previously described (Chan et al., 2016c. Chan et al., 2017b). Blood samples were also collected for RNA extraction and qRT-PCR analysis.
For immunohistochemical analysis, each organ was entirely embedded in one paraffin block, and one full-face paraffin section at the maximum diameter of each organ was examined per block.

CO[C@@H]1[C@@H](OC(N)=O)[C@@H](O)[C@H](Oc2ccc3c(O)c(NC(=O)c4ccc(O)c(CC=C(C)C)c4)c(=O)oc3c2C)OC1(C)C [Novobiocin]
Survival (ZIKV; 100 mg/kg q12 h sc 1-13 dpi, vs 0% untreated control mice, P<0.05): 100% | ZIKV-NS1 antigen expression in organ tissues (immunohistochemical staining) (ZIKV; 5 dpi): minimal; also recorded: rarely detected | Mean viral loads in the blood and the major organ tissues (ZIKV; 5 dpi and 14 dpi, incl. testis and kidney): significantly reduced | Weight loss after dexamethasone withdrawal (ZIKV; ZIKV-inoculated, 100 mg/kg q12 h sc): ≤ 8% | Clinical symptoms after dexamethasone withdrawal (ZIKV; ZIKV-inoculated, 100 mg/kg q12 h sc, recovered at 13-14 dpi): minimal clinical symptoms | Inflammatory infiltrates in organ tissues (H&E) (ZIKV; after dexamethasone withdrawal, 12 or 14 dpi): little inflammatory infiltrate; also recorded: no or mild inflammatory infiltrate, and preserved tissue architecture; also recorded: minimal inflammatory infiltrates | Reduction of mean viral loads in blood and most major organ tissues vs untreated control mice (ZIKV; at both 5 dpi and 14 dpi, qRT-PCR normalized by β-actin): ≥ 2 log | Reduction in virus titer [1]: dose-dependent reduction in virus titer | ZIKV NS1 antigen expression in organ tissues (brain, testis, kidney) ([2]; 5 dpi): minimal ZIKV NS1 antigen expression | Inflammatory infiltrate in brain, testis and kidney ([2]; ZIKV-inoculated and mock-infected mice with novobiocin): no or mild inflammatory infiltrate
